Test results: US20240400717A1, “Antibody Binding to CHI3L1 for Treating Cancer” (National Cheng Kung University, priority 2021, published 2024)

System: MiaPaCa cells
Assay: MiaPaCa orthotopic NOD-SCID mice model
[1] = mAb 5 mg/kg i.v., gemcitabine 50 mg/kg i.p.

Protocol: Specifically, experimental design of tumor growth inhibition in vivo. MiaPaCa cells (5×10^6) were injected into pancreas of NOD-SCID mice at Day 0. […] Mice were sacrificed on day 34. […] Since fibrosis and angiogenesis are two major issues during tumor progression, we compared the fibrosis and angiogenesis level within each groups.

`Nc1ccn([C@@H]2O[C@H](CO)[C@@H](O)C2(F)F)c(=O)n1` [gemcitabine, reference compound] was tested, and the “level of CHI3L1 in intratumoral region and plasma” value (end of experiment) was “lower than IgG control group”, the “angiogenesis indicated by CD31 expression” value [1] was “decreased in every treatment groups” and the body weight [1] was “without significant weight loss”. The tumor size (mAb 5 mg/kg i.v., gemcitabine 50 mg/kg i.p., Day 7, 14, 21, 28, sacrificed day 34) was “smaller than IgG control group”.
